This is an account of results in the NIST ThermoML archive (doi:10.1021/acs.jced.7b00241).

For this data set the following is noted: Liquid; for mass density: 298.15 K, 101.33 kPa, Vibrating tube method; for Normal boiling temperature: Ebulliometric method (Recirculating still).

Usually mass density stands for mass per unit of volume.

Numbers after ± are expanded uncertainties.

With `CC(=O)OCC(C)C` [2-methylpropyl ethanoate], the mass density is reported as 866.2 ± 0.2 kg/m3 and the Normal boiling temperature is 116.8 ± 0.2 °C.

In the case of `CC(C)CO` [2-methyl-1-propanol], the mass density amounted to 798 ± 0.2 kg/m3 and the Normal boiling temperature is 107.83 ± 0.2 °C.

Turning to `C[S+](C)[O-]` [dimethyl sulfoxide], the mass density is listed as 1095.5 ± 0.2 kg/m3 and the Normal boiling temperature was 190.70 ± 0.2 °C.
